Source: publication PMC11801715, “Activating PKC-ε induces HIV expression with improved tolerability” (PLOS Pathogens, 2025)

Assays:
[1] = test system: latent HIV in total CD4+ T cells; assay: microbe, parasite or virus in culture; assay type: cell-based, HIV-1; details: for HIV RNA Fold∆ over DMSO, Geomean: 5 μM
Experimental: Peripheral blood mononuclear cells and CD4^+ T cells used for evaluating PKC agonist and inhibitor molecules were isolated from leukopaks of selected participants as described previously. Isolated CD4^+ T cells (5×10^6 cells/well) were added to 24-well tissue culture plates in 2.5 mL of RPMI medium containing 100 nM each of elvitegravir and efavirenz. Cells were stimulated with DMSO (vehicle control) or the indicated concentrations of PKC agonist molecules. Cells were pretreated with PKC isoform inhibitors (Selleck Chemicals) for 1 hour before addition of PKC agonist at indicated concentrations and maintained at 37 °C, 5% CO2 for 3 days. Cell supernatants from each well were analyzed using the Cobas […] system for quantification of HIV-1 RNA using the HIV-1 test v2.0 kit (Roche Diagnostics).

PKC-β2 [2] = molecular target: T1, PKC-β2 (Homo sapiens, UniProt P05771); assay: PKC isoform translocation in A549-tGFP cells; assay type: cell-based; parameters: host or cells: A549; details: 60 minutes
T1 sequence (P05771 1-673 isoform P05771-2): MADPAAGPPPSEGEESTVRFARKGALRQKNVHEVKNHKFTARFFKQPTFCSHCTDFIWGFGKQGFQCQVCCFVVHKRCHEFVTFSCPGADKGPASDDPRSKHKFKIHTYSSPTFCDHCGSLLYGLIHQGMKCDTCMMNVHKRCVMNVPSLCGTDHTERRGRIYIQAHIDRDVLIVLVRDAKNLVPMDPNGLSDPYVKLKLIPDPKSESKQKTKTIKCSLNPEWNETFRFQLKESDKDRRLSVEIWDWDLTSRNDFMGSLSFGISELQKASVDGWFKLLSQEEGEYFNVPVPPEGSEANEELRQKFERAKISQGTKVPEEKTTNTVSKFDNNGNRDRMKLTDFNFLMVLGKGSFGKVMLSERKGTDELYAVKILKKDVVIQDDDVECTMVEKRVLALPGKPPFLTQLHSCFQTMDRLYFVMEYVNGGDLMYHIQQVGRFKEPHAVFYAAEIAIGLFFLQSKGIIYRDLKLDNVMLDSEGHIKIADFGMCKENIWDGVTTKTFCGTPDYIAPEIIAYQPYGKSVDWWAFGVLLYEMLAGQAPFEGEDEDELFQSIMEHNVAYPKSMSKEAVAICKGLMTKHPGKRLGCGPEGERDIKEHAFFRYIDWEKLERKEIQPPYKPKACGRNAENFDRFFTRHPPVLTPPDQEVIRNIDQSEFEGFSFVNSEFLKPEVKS
Experimental: (§1) Using these findings we embarked on new designs for DAG-lactones with additional substituents from the ester moiety in combination with a few olefin substituents. A description of this effort is reported elsewhere.
(§2) Cellular translocation of PKC isoforms upon activation was determined in 8 A549 cell lines, each expressing a single PKC isoform fused to tGFP (PhenoVista Biosciences). Cells were plated in 384-well plates (80 μL/well) at 10^5 cells/mL in RPMI with 10% FBS and rested overnight. PKC agonist(s) were serially diluted at 1:3 steps in DMSO and added to the cells. After 60 minutes in an incubator at 37 °C, 5% CO2, cells were stained with Hoechst-33342 and fixed with 2% paraformaldehyde for 30 minutes at 4 °C. Cells were then stained with wheat germ agglutinin conjugated to AlexaFluor647 (WGA-647) for 10 minutes at 4 °C, washed to remove excess dye and imaged with Cellomics Array Scan (Thermo Fisher) at room temperature (RT). Images were analyzed using Cellomics automated image analysis algorithm. Plasma membrane translocation was quantified using the ratio between the average fluorescence in the areas at the cell edge defined by WGA-647 and the cytoplasm region.

PKC-β1 [3] = molecular target: T2, PKC-β1 (Homo sapiens, UniProt P05771); assay: PKC isoform translocation in A549-tGFP cells; assay type: cell-based; parameters: host or cells: A549; details: 60 minutes
T2 sequence (P05771 whole entry, canonical isoform): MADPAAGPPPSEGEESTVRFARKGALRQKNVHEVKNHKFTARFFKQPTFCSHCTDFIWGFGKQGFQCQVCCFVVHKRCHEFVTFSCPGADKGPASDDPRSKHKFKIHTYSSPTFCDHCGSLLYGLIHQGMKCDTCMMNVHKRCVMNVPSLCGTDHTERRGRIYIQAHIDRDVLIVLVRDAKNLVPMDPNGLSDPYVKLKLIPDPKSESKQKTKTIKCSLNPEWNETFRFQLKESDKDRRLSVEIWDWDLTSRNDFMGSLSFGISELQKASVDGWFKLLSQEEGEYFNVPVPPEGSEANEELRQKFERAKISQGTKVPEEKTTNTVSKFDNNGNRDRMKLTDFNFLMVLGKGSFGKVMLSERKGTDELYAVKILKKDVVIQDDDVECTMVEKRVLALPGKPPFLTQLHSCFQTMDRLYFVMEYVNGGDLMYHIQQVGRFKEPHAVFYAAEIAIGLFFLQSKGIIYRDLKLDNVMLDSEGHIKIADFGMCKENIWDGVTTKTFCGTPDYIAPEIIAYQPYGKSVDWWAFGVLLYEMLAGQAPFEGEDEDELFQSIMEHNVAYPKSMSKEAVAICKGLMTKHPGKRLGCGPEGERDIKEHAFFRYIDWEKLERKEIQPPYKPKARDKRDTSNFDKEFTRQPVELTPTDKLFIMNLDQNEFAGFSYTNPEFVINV
Experimental: as §1, §2

PKC-ε = molecular target: T3, PKC-ε (Homo sapiens, UniProt Q02156); assay: PKC isoform translocation in A549-tGFP cells; assay type: cell-based; parameters: host or cells: A549; details: A549-tGFP cells, 60 minutes
T3 sequence (Q02156 1-737): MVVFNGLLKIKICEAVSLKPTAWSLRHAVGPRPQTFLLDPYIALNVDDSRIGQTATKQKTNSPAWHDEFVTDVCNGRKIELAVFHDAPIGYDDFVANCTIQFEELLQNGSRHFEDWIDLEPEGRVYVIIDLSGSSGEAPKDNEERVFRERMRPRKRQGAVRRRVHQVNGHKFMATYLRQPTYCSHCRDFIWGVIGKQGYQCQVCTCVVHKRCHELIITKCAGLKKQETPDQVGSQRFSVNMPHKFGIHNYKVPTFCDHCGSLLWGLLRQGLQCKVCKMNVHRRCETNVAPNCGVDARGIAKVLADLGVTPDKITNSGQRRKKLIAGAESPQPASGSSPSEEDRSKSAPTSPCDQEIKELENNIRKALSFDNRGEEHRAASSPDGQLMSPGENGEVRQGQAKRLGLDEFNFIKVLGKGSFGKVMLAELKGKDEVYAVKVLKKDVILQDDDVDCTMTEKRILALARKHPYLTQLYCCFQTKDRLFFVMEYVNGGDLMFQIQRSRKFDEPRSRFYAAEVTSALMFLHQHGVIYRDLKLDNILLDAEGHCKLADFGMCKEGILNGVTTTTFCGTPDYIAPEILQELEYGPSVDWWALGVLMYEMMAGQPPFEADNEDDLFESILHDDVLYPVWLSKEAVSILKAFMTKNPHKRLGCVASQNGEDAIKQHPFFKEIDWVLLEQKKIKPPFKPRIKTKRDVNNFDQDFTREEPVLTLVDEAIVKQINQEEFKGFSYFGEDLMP
Experimental: as §1, §2

PKC-θ = PKC-θ (Homo sapiens, UniProt Q04759); assay: PKC isoform translocation in A549-tGFP cells; assay type: cell-based; parameters: host or cells: A549; details: A549-tGFP cells, 60 minutes
PKC-θ, sequence (Q04759 whole entry, canonical isoform): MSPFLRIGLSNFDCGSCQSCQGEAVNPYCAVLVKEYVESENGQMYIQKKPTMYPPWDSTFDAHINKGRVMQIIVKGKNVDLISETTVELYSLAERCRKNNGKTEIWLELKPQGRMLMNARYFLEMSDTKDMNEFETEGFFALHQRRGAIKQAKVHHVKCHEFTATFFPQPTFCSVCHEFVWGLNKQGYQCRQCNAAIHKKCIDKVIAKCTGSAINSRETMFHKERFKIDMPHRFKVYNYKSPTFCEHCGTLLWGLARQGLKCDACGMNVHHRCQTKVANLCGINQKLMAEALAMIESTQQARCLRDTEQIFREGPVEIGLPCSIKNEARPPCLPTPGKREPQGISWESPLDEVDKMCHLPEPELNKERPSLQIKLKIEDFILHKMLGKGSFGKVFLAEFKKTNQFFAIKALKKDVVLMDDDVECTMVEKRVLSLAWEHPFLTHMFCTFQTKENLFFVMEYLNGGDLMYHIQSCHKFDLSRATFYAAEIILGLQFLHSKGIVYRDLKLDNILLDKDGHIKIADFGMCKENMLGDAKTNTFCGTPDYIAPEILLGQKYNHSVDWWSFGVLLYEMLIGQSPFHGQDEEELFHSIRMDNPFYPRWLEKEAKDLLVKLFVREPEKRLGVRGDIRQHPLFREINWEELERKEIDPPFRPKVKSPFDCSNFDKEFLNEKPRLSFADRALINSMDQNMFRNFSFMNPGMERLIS
Experimental: (§3) A description of this effort is reported elsewhere.
as §2

PKC-δ = PKC-δ (Homo sapiens, UniProt Q05655); assay: PKC isoform translocation in A549-tGFP cells; assay type: cell-based; parameters: host or cells: A549; details: A549-tGFP cells, 60 minutes; read-out: EC50 for PKC-δ translocation
PKC-δ, sequence (Q05655 whole entry, canonical isoform): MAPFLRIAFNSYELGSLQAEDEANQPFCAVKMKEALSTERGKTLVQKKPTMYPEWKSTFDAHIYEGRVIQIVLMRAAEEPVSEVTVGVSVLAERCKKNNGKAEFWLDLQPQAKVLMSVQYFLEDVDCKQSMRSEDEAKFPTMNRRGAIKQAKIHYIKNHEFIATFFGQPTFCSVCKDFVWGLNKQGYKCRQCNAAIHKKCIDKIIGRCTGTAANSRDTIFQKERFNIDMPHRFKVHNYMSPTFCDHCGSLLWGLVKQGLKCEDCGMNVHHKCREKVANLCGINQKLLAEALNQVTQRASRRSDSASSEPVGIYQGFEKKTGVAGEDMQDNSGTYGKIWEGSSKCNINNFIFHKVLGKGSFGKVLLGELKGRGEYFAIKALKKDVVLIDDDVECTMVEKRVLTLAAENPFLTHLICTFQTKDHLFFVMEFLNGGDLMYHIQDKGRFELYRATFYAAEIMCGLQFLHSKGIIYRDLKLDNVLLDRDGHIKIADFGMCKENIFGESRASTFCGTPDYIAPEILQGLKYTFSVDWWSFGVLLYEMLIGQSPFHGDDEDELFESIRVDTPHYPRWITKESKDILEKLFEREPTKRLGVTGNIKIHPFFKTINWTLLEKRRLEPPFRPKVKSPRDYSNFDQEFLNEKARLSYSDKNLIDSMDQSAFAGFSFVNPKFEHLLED
Experimental: as §3, §2

PKC-η = PKC-η (Homo sapiens, UniProt P24723); assay: PKC isoform translocation in A549-tGFP cells; assay type: cell-based; parameters: host or cells: A549; details: A549-tGFP cells, 60 minutes
PKC-η, sequence (P24723 whole entry, canonical isoform): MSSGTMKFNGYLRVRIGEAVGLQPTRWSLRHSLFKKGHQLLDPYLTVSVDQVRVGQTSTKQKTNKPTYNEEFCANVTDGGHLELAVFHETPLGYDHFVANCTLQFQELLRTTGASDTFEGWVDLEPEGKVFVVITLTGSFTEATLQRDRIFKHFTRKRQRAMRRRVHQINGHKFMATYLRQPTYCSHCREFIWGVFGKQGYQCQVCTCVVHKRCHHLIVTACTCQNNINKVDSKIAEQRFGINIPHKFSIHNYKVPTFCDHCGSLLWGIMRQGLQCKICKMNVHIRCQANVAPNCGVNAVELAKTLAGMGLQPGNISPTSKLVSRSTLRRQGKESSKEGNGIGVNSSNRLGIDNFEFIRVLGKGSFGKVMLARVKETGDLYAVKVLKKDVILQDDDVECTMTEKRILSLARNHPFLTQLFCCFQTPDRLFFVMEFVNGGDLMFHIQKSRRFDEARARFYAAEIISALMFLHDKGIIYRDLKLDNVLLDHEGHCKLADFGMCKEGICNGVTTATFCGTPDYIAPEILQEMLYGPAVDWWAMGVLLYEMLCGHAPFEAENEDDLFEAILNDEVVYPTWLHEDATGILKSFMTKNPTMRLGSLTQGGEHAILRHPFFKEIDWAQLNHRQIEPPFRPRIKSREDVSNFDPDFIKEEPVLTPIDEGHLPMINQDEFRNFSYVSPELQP
Experimental: as §3, §2

PKC-α [4] = molecular target: T4, PKC-α (Homo sapiens, UniProt P17252); assay: PKC isoform translocation in A549-tGFP cells; assay type: cell-based; parameters: host or cells: A549; details: A549-tGFP cells, 60 minutes; read-out: EC50 for PKC-α translocation
Experimental: as §3, §2

platelet-rich plasma = assay: Platelet aggregation assay (light transmittance aggregometry); assay type: cell-based, human; details: dilution series, 20 minutes
Experimental: Given that C-232A induced DIC in rats and monkeys, we tested whether C-232A could directly induce platelet activation and downstream aggregation. […] Adenosine diphosphate, a known platelet agonist, was used as a positive control (S7A Fig).
Aggregation of platelets was assessed using light transmittance aggregometry using standard methods.
(A) Assay principle for platelet aggregation assay.

CD69 on CD4+ T cells = assay: CD4+ T-cell activation flow cytometry (CD69); assay type: cell-based; details: Homo sapiens; CD4+ T cells from ART-suppressed people with HIV; read-out: EC50, activation of CD69 expression
Experimental: Sixteen hours post treatment with PKC agonists, cellular activation of 100,000 CD4^+ T cells, taken from the above ex vivo HIV activation cultures, was assessed using flow cytometry. Cell surface expression of CD69 was measured on CD4^+ T cells using anti-human CD3 (UCHT1), CD4 (SK3) and CD69 (FN50) antibodies and standard flow staining methods. Stained cells were acquired on the Becton Dickinson (BD) LSR Fortessa II flow cytometer and results were analyzed using FlowJo software.

PBMCs = assay: Cytokine induction in vitro in PBMC culture supernatants; assay type: cell-based, human; details: 24 hours
Experimental: Culture supernatants were analyzed for induction of several cytokines as shown in S3 Table, using a 10-plex MSD (Meso Scale Discovery) assay following manufacturer’s instructions. MSD Workbench 4.0 software was used for data analysis and 4-parameter logistic curve fit model was utilized to determine values of experimental samples from standard curves. Values for each cytokine (pg/mL) for a given concentration was calculated as the geometric mean of all triplicate values combined from all 5 donors.

[5] = test system: platelets (CD62P+) and CD4+ T cells (CD69+) in whole blood; assay: In vitro whole blood platelet and CD4+ T-cell activation assay; assay type: cell-based, human; details: whole blood from healthy donors; platelets to CD4+ T cells
Experimental: We developed a novel human whole blood assay to determine whether other PKC agonists also activate platelets at the same concentrations that are required to activate CD4^+ T cells. Platelet activation was assessed by CD62P (P-selectin), which traffics to the cell surface upon activation and α-granule release. CD4^+ T-cell activation was assessed by CD69 upregulation (Fig 7A).
Whole blood was drawn into sodium citrate tubes using a 21-gauge needle. To prevent potential interference from tissue thromboplastin released during venipuncture, which could affect the accuracy of coagulation testing, the first 2 mL of blood drawn was discarded. PKC agonist molecules were dispensed in a dilution series into 80 μL of blood per well in a flat-bottom 96-well plate and mixed gently. Care was taken not to introduce any mechanical stress-related activation of platelets. […] The remaining 72 μL of blood in the first plate was incubated for 1 additional hour and stained with anti-human CD3 (UCHT1), CD4 (SK3), and CD69 (FN50) (30 minutes in the dark). Red blood cell lysis and fixing was done using BD lyse/fix solution. Stained cells were acquired on BD LSR Fortessa II after washing. […] EC50 values for platelet and CD4 T-cell activation for each agonist was obtained by nonlinear regression curve fit using GraphPad Prism version 9.3.0.

[6] = Free fraction in cell culture media; assay type: in vitro ADME
PKC-β2 [7] = molecular target: T1, PKC-β2; assay: Z'-LYTE kinase activity assay; assay type: biochemical; details: ATP at Kmapp, 2 μM peptide substrate; read-out: IC50 for classical PKC isoforms, PKC-β2
Description: (§4) In this assay, phosphorylation of a synthetic FRET-peptide substrate protects the peptide from cleavage by the development reagent and prevents disruption of the FRET signal.

PKC-β1 [8] = molecular target: T2, PKC-β1; assay: Z'-LYTE kinase activity assay; assay type: biochemical; details: ATP at Kmapp, 2 μM peptide substrate; read-out: IC50 for classical PKC isoforms, PKC-β1
Description: as §4

PKC-α [9] = molecular target: T4, PKC-α; assay: Z'-LYTE kinase activity assay; assay type: biochemical; details: ATP at Kmapp, 2 μM peptide substrate; read-out: IC50 for classical PKC isoforms, PKC-α
Description: as §4

[10] = test system: classical and novel PKC isoforms; assay: Estimated PKC inhibition in cell culture from Z'-LYTE IC50 and free fraction; assay type: biochemical; details: 25 µM, 34% free in cell culture media
Description: as §4

CC(C)=C1CC(CO)(COC(=O)c2ccc(C#Cc3ccc(C)cc3)cc2)OC1=O (stereo not shown) [Comin compound 2]
HIV RNA Fold∆ over DMSO, Geomean ([1]; agonist alone): 13 fold
HIV RNA Fold∆ over DMSO, Geomean ([1]; +5 μM Gö-6850 Pan-PKC Inhibitor): 1.6 fold
HIV RNA Fold∆ over DMSO, Geomean ([1]; +25 μM Gö-6976 Classical-PKC Inhibitor): 15 fold
EC50 (PKC-β2 [2]): 6650 nM
EC50 (PKC-β1 [3]): 966 nM
EC50 (PKC-ε): 783 nM
EC50 (PKC-θ): 792 nM
EC50 (PKC-δ): 4040 nM
EC50 (PKC-η): 1190 nM
EC50 (PKC-α [4]): > 50000 nM

CC(=O)O[C@@]12C[C@@H](C)[C@@]3(O)[C@@H](C=C(CO)C[C@]4(O)C(=O)C(C)=C[C@@H]34)[C@@H]1C2(C)C [Prostratin, prostratin, reference compound]
platelet aggregation (platelet-rich plasma): stimulated platelet aggregation
EC50 (CD69 on CD4+ T cells): 280 nM
GM-CSF in PBMC culture supernatant (PBMCs; 625 nM): 35 pg/mL
IFN-γ in PBMC culture supernatant (PBMCs; 625 nM): 255 pg/mL
IL-1b in PBMC culture supernatant (PBMCs; 625 nM): 57 pg/mL
IL-2 in PBMC culture supernatant (PBMCs; 625 nM): 22 pg/mL
IL-4 in PBMC culture supernatant (PBMCs; 625 nM): 0.7 pg/mL
IL-6 in PBMC culture supernatant (PBMCs; 625 nM): 40 pg/mL
IL-8 in PBMC culture supernatant (PBMCs; 625 nM): 40,698 pg/mL
IL-10 in PBMC culture supernatant (PBMCs; 625 nM): 4 pg/mL
IL-12p70 in PBMC culture supernatant (PBMCs; 625 nM): 10 pg/mL
TNF-α in PBMC culture supernatant (PBMCs; 625 nM): 634 pg/mL
GM-CSF in PBMC culture supernatant (PBMCs; 2500 nM): 68 pg/mL
IFN-γ in PBMC culture supernatant (PBMCs; 2500 nM): 292 pg/mL
IL-1b in PBMC culture supernatant (PBMCs; 2500 nM): 108 pg/mL
IL-2 in PBMC culture supernatant (PBMCs; 2500 nM): 32 pg/mL
IL-4 in PBMC culture supernatant (PBMCs; 2500 nM): 1.1 pg/mL
IL-6 in PBMC culture supernatant (PBMCs; 2500 nM): 78 pg/mL
IL-8 in PBMC culture supernatant (PBMCs; 2500 nM): 45,930 pg/mL
IL-10 in PBMC culture supernatant (PBMCs; 2500 nM): 4.6 pg/mL
IL-12p70 in PBMC culture supernatant (PBMCs; 2500 nM): 12 pg/mL
TNF-α in PBMC culture supernatant (PBMCs; 2500 nM): 1489 pg/mL
EC50 ([1]; Human immunodeficiency virus 1, CD4+ T, read-out: EC50, activation of HIV expression): 2500 nM

CC(C)[C@H]1C(=O)N[C@H](CO)Cc2c[nH]c3cccc(c23)N1C [Indolactam, reference compound]
CD62P EC50/CD69 EC50 ratio Geomean [5]: 2.0

Cn1c2ccccc2c2c3c(c4c5ccccc5n(CCC#N)c4c21)CNC3=O [Gӧ-6976]
free in cell culture media [6]: 34%
IC50 (PKC-β2 [7]): 182 nM
IC50 (PKC-β1 [8]): 469 nM
IC50 (PKC-α [9]): 101 nM
estimated effect on novel PKC isoforms [10]: without impacting novel PKC isoforms
estimated inhibition of classical isoform activity [10]: 75%–95%
